The source of these data is US20240115663A1, “COMPOSITIONS COMPRISING AT LEAST AN INSULIN AND AN AMYLIN RECEPTOR AGONIST FOR TREATING DIABETES, IN A PATIENT/PERSON HAVING A BMI OF MORE THAN 28 KG/M² AND/OR AN HBA1C OF MORE THAN 7.6%” (ADOCIA, priority 2022, published 2024).

The assay can be described thus: Phase 2 clinical trial of M1Pram vs Humalog in subjects with type 1 diabetes: body weight change after 16 weeks. The class given is in vivo, human. How it is done:
A phase 2 clinical trial was conducted to confirm the efficacy and safety of M1Pram in subjects with type 1 diabetes (NCT04816890).
The primary objective of the trial was to compare the efficacy of prandial use of M1Pram to Humalog® (insulin lispro) on body weight change after 16 weeks of optimised titration, in combination with a basal insulin.
In addition, exploratory objectives included the comparison of the efficacy of prandial use of M1Pram with Humalog® in subgroups of subjects with a body mass index (BMI) and HbA1c above and below the median at screening.
A post-hoc analysis also included the comparison of the efficacy of prandial use of M1Pram with Humalog® in subgroups of subjects with a body mass index (BMI)>=30 kg/m^2.
The primary endpoint was the body weight change from baseline to week 16 of treatment.
In addition, exploratory endpoints included analysis of the subgroups of the primary endpoint according to BMI and HbA1c below and above the median.
A post-hoc analysis was also performed to analyze the subgroups of the primary endpoint according to BMI>=30 kg/m^2.
This was a multicentric, open-label, randomized, two-arm parallel, active-comparator controlled phase 2 clinical trial evaluating the efficacy and safety of M1Pram in subjects with type 1 diabetes.
Key inclusion criteria included subjects • with T1D • aged between 18 and 64 years • with a Body Mass Index (BMI) between 25.0 and 35.0 kg/m^2, both inclusive, • with HbA1c between 7.0% and 9.5%, both inclusive • with a Diabetes duration of at least 12 months • Using a multiple dosing insulin therapy (MDI) with a basal insulin and a rapid-acting insulin • having at least two meals per day.
80 patients were randomized 1:1 to M1Pram or Humalog®.
The trial consisted in 4 periods: • an optional a run-in period of 2 to 4 weeks for patients not already using the Continuous Glucose Monitoring (CGM) system used in the trial or either insulin degludec or insulin glargine as basal insulins • a 3-week baseline data recording period • after randomization, a treatment period of about 16 weeks (W1 to 16) • and a safety follow-up period of 1 to 2 weeks after the last product administration.
37 subjects completed the trial in the Humalog® arm and 34 in the M1 Pram arm. The subgroups were selected depending on the patients' metrics at screening.

insulin lispro [Humalog ®]: the “Mean BW change in kg (SD)” value was −0.45 (3.12) kg (All completers, baseline to week 16 of treatment, T1D subjects, prandial use with basal insulin); −0.69 (3.19) kg (Subgroup BMI <= 28 kg/m^2 at screening, baseline to week 16); −0.17 (3.09) kg (Subgroup BMI > 28 kg/m^2 at screening, baseline to week 16); −0.57 (3.60) kg (Subgroup BMI >= 30 kg/m^2 (post-hoc), baseline to week 16); −0.87 (2.20) kg (Subgroup HbA1c <= 7.6% at screening, baseline to week 16); 0.04 (3.95) kg (Subgroup HbA1c > 7.6% at screening, baseline to week 16).
